Test results: BigSolDB 2.1

Question: For `Nc1c(Cl)cc([N+](=O)[O-])cc1Cl`, which solubility (mole fraction) (in 1,4-dioxane, 293.15 K) is on record?
Answer: 0.0251

Question: And the solubility (mole fraction) (in 1,4-dioxane, 298.15 K)?
Answer: 0.0292

Question: What about the solubility (mole fraction) (in 1,4-dioxane, 303.15 K) of the same compound?
Answer: 0.0337

Question: And the solubility (mole fraction) (in 1,4-dioxane, 308.15 K)?
Answer: 0.0389

Question: What about the solubility (mole fraction) (in 1,4-dioxane, 313.15 K) of the same compound?
Answer: 0.0447

Question: What about the solubility (mole fraction) (in 1,4-dioxane, 318.15 K) of the same compound?
Answer: 0.0513

Question: And the solubility (mole fraction) (in 1,4-dioxane, 323.15 K)?
Answer: 0.0598

Question: And the solubility (mole fraction) (in NMP, 278.15 K)?
Answer: 0.135

Question: And the solubility (mole fraction) (in NMP, 283.15 K)?
Answer: 0.141

Question: What about the solubility (mole fraction) (in NMP, 288.15 K) of the same compound?
Answer: 0.149

Question: And the solubility (mole fraction) (in NMP, 293.15 K)?
Answer: 0.159

Question: And the solubility (mole fraction) (in NMP, 298.15 K)?
Answer: 0.169

Question: What about the solubility (mole fraction) (in NMP, 303.15 K) of the same compound?
Answer: 0.179

Question: What about the solubility (mole fraction) (in NMP, 308.15 K) of the same compound?
Answer: 0.189

Question: And the solubility (mole fraction) (in NMP, 313.15 K)?
Answer: 0.199

Question: And the solubility (mole fraction) (in NMP, 318.15 K)?
Answer: 0.211

Question: And the solubility (mole fraction) (in NMP, 323.15 K)?
Answer: 0.227

Question: What about the solubility (mole fraction) (in acetonitrile, 278.15 K) of the same compound?
Answer: 0.00152

Question: And the solubility (mole fraction) (in acetonitrile, 283.15 K)?
Answer: 0.00176

Question: What about the solubility (mole fraction) (in acetonitrile, 288.15 K) of the same compound?
Answer: 0.00211

Question: What about the solubility (mole fraction) (in acetonitrile, 293.15 K) of the same compound?
Answer: 0.00249

Question: And the solubility (mole fraction) (in acetonitrile, 298.15 K)?
Answer: 0.00293

Question: What about the solubility (mole fraction) (in acetonitrile, 303.15 K) of the same compound?
Answer: 0.00352

Question: And the solubility (mole fraction) (in acetonitrile, 308.15 K)?
Answer: 0.00411

Question: And the solubility (mole fraction) (in acetonitrile, 313.15 K)?
Answer: 0.00487

Question: And the solubility (mole fraction) (in acetonitrile, 318.15 K)?
Answer: 0.00577

Question: And the solubility (mole fraction) (in acetonitrile, 323.15 K)?
Answer: 0.00665

Question: What about the solubility (mole fraction) (in cyclohexane, 278.15 K) of the same compound?
Answer: 0.000119

Question: And the solubility (mole fraction) (in cyclohexane, 283.15 K)?
Answer: 0.000147

Question: And the solubility (mole fraction) (in cyclohexane, 288.15 K)?
Answer: 0.000185

Question: And the solubility (mole fraction) (in cyclohexane, 293.15 K)?
Answer: 0.000236

Question: And the solubility (mole fraction) (in cyclohexane, 298.15 K)?
Answer: 0.000301

Question: What about the solubility (mole fraction) (in cyclohexane, 303.15 K) of the same compound?
Answer: 0.000389

Question: And the solubility (mole fraction) (in cyclohexane, 308.15 K)?
Answer: 0.000501

Question: What about the solubility (mole fraction) (in cyclohexane, 313.15 K) of the same compound?
Answer: 0.000617

Question: What about the solubility (mole fraction) (in cyclohexane, 318.15 K) of the same compound?
Answer: 0.00074

Question: What about the solubility (mole fraction) (in cyclohexane, 323.15 K) of the same compound?
Answer: 0.000906

Question: And the solubility (mole fraction) (in ethanol, 278.15 K)?
Answer: 0.000879

Question: What about the solubility (mole fraction) (in ethanol, 283.15 K) of the same compound?
Answer: 0.00102

Question: What about the solubility (mole fraction) (in ethanol, 288.15 K) of the same compound?
Answer: 0.00123

Question: And the solubility (mole fraction) (in ethanol, 293.15 K)?
Answer: 0.00149

Question: What about the solubility (mole fraction) (in ethanol, 298.15 K) of the same compound?
Answer: 0.00183

Question: And the solubility (mole fraction) (in ethanol, 303.15 K)?
Answer: 0.00222

Question: And the solubility (mole fraction) (in ethanol, 308.15 K)?
Answer: 0.00268

Question: What about the solubility (mole fraction) (in ethanol, 313.15 K) of the same compound?
Answer: 0.00325

Question: What about the solubility (mole fraction) (in ethanol, 318.15 K) of the same compound?
Answer: 0.00384

Question: And the solubility (mole fraction) (in ethanol, 323.15 K)?
Answer: 0.00455

Question: What about the solubility (mole fraction) (in ethyl acetate, 278.15 K) of the same compound?
Answer: 0.0085

Question: What about the solubility (mole fraction) (in ethyl acetate, 283.15 K) of the same compound?
Answer: 0.00938

Question: And the solubility (mole fraction) (in ethyl acetate, 288.15 K)?
Answer: 0.0109

Question: And the solubility (mole fraction) (in ethyl acetate, 293.15 K)?
Answer: 0.0126

Question: What about the solubility (mole fraction) (in ethyl acetate, 298.15 K) of the same compound?
Answer: 0.0153

Question: What about the solubility (mole fraction) (in ethyl acetate, 303.15 K) of the same compound?
Answer: 0.0177

Question: What about the solubility (mole fraction) (in ethyl acetate, 308.15 K) of the same compound?
Answer: 0.0208

Question: And the solubility (mole fraction) (in ethyl acetate, 313.15 K)?
Answer: 0.025

Question: What about the solubility (mole fraction) (in ethyl acetate, 318.15 K) of the same compound?
Answer: 0.0291

Question: And the solubility (mole fraction) (in ethyl acetate, 323.15 K)?
Answer: 0.0336

Question: And the solubility (mole fraction) (in ethylene glycol, 278.15 K)?
Answer: 0.000815

Question: What about the solubility (mole fraction) (in ethylene glycol, 283.15 K) of the same compound?
Answer: 0.000969

Question: And the solubility (mole fraction) (in ethylene glycol, 288.15 K)?
Answer: 0.00117

Question: And the solubility (mole fraction) (in ethylene glycol, 293.15 K)?
Answer: 0.00139

Question: What about the solubility (mole fraction) (in ethylene glycol, 298.15 K) of the same compound?
Answer: 0.00167

Question: And the solubility (mole fraction) (in ethylene glycol, 303.15 K)?
Answer: 0.00195

Question: What about the solubility (mole fraction) (in ethylene glycol, 308.15 K) of the same compound?
Answer: 0.00236

Question: What about the solubility (mole fraction) (in ethylene glycol, 313.15 K) of the same compound?
Answer: 0.00281

Question: What about the solubility (mole fraction) (in ethylene glycol, 318.15 K) of the same compound?
Answer: 0.00338

Question: And the solubility (mole fraction) (in ethylene glycol, 323.15 K)?
Answer: 0.00412

Question: And the solubility (mole fraction) (in isopropanol, 283.15 K)?
Answer: 0.00093

Question: What about the solubility (mole fraction) (in isopropanol, 288.15 K) of the same compound?
Answer: 0.00111

Question: And the solubility (mole fraction) (in isopropanol, 293.15 K)?
Answer: 0.00133

Question: And the solubility (mole fraction) (in isopropanol, 298.15 K)?
Answer: 0.00162

Question: And the solubility (mole fraction) (in isopropanol, 303.15 K)?
Answer: 0.00195

Question: And the solubility (mole fraction) (in isopropanol, 308.15 K)?
Answer: 0.00234

Question: What about the solubility (mole fraction) (in isopropanol, 313.15 K) of the same compound?
Answer: 0.00281

Question: And the solubility (mole fraction) (in isopropanol, 318.15 K)?
Answer: 0.00338

Question: And the solubility (mole fraction) (in isopropanol, 323.15 K)?
Answer: 0.00413

Question: And the solubility (mole fraction) (in methanol, 278.15 K)?
Answer: 0.000705

Question: What about the solubility (mole fraction) (in methanol, 283.15 K) of the same compound?
Answer: 0.000814

Question: What about the solubility (mole fraction) (in methanol, 288.15 K) of the same compound?
Answer: 0.000987

Question: What about the solubility (mole fraction) (in methanol, 293.15 K) of the same compound?
Answer: 0.00121

Question: And the solubility (mole fraction) (in methanol, 298.15 K)?
Answer: 0.0015

Question: And the solubility (mole fraction) (in methanol, 303.15 K)?
Answer: 0.00182

Question: And the solubility (mole fraction) (in methanol, 308.15 K)?
Answer: 0.00224

Question: And the solubility (mole fraction) (in methanol, 313.15 K)?
Answer: 0.00267

Question: And the solubility (mole fraction) (in methanol, 318.15 K)?
Answer: 0.00314

Question: What about the solubility (mole fraction) (in methanol, 323.15 K) of the same compound?
Answer: 0.00377

Question: And the solubility (mole fraction) (in n-butanol, 278.15 K)?
Answer: 0.00121

Question: What about the solubility (mole fraction) (in n-butanol, 283.15 K) of the same compound?
Answer: 0.00148

Question: And the solubility (mole fraction) (in n-butanol, 288.15 K)?
Answer: 0.00172

Question: And the solubility (mole fraction) (in n-butanol, 293.15 K)?
Answer: 0.00216

Question: And the solubility (mole fraction) (in n-butanol, 298.15 K)?
Answer: 0.0026

Question: And the solubility (mole fraction) (in n-butanol, 303.15 K)?
Answer: 0.00308

Question: What about the solubility (mole fraction) (in n-butanol, 308.15 K) of the same compound?
Answer: 0.00378

Question: What about the solubility (mole fraction) (in n-butanol, 313.15 K) of the same compound?
Answer: 0.00446

Question: What about the solubility (mole fraction) (in n-butanol, 318.15 K) of the same compound?
Answer: 0.00543

Question: And the solubility (mole fraction) (in n-butanol, 323.15 K)?
Answer: 0.00638

Question: And the solubility (mole fraction) (in n-propanol, 278.15 K)?
Answer: 0.00102

Question: And the solubility (mole fraction) (in n-propanol, 283.15 K)?
Answer: 0.00123

Question: And the solubility (mole fraction) (in n-propanol, 288.15 K)?
Answer: 0.00146

Question: And the solubility (mole fraction) (in n-propanol, 293.15 K)?
Answer: 0.00176

Question: And the solubility (mole fraction) (in n-propanol, 298.15 K)?
Answer: 0.00216

Question: And the solubility (mole fraction) (in n-propanol, 303.15 K)?
Answer: 0.00258

Question: And the solubility (mole fraction) (in n-propanol, 308.15 K)?
Answer: 0.00307

Question: What about the solubility (mole fraction) (in n-propanol, 313.15 K) of the same compound?
Answer: 0.00364

Question: And the solubility (mole fraction) (in n-propanol, 318.15 K)?
Answer: 0.00441

Question: What about the solubility (mole fraction) (in n-propanol, 323.15 K) of the same compound?
Answer: 0.00546

Question: And the solubility (mole fraction) (in water, 278.15 K)?
Answer: 1.88e-06

Question: And the solubility (mole fraction) (in water, 283.15 K)?
Answer: 2.53e-06

Question: What about the solubility (mole fraction) (in water, 288.15 K) of the same compound?
Answer: 3.43e-06

Question: And the solubility (mole fraction) (in water, 293.15 K)?
Answer: 4.76e-06

Question: And the solubility (mole fraction) (in water, 298.15 K)?
Answer: 6.43e-06

Question: And the solubility (mole fraction) (in water, 303.15 K)?
Answer: 8.31e-06

Question: What about the solubility (mole fraction) (in water, 308.15 K) of the same compound?
Answer: 1.06e-05

Question: What about the solubility (mole fraction) (in water, 313.15 K) of the same compound?
Answer: 1.37e-05

Question: And the solubility (mole fraction) (in water, 318.15 K)?
Answer: 1.72e-05

Question: And the solubility (mole fraction) (in water, 323.15 K)?
Answer: 2.18e-05
